Columns and labels:
Tubulin (Homo sapiens) [1] = molecular target: T1, Tubulin (Homo sapiens) (UniProt P68371+Q9H4B7+P0DPH7+P68366+Q13509+Q71U36+P04350+Q3ZCM7+P07437+P68363+Q9BQE3+Q6PEY2+Q13885+Q9BVA1+Q9BUF5); assay: Binding affinity to microtubules, activity expressed as ID50 of compound/ID50 of paclitaxel; assay type: protein-complex assay
Tubulin (Homo sapiens) [2] = molecular target: T1, Tubulin (Homo sapiens); assay: Binding affinity to microtubules, activity expressed as log 1/ID50 of compound/ID50 of paclitaxel; assay type: protein-complex assay

| Structure (SMILES) | ID50 ratio (Tubulin (Homo sapiens) [1]) | Log 1/ratio (Tubulin (Homo sapiens) [2]) |
| --- | --- | --- |
| CC(=O)O[C@H]1C(=O)[C@]2(C)[C@@H](OC(=O)[C@H](O)[C@@H](O)[C@H](O)CO)C[C@H]3OC[C@@]3(OC(C)=O)[C@H]2[C@H](OC(=O)c2ccccc2)[C@]2(O)C[C@H](OC(=O)[C@H](O)[C@@H](NC(=O)c3ccccc3)c3ccccc3)C(C)=C1C2(C)C | 0.4 | -0.398 |
| CC(=O)O[C@H]1C(=O)[C@@]2(C)[C@H]([C@H](OC(=O)c3ccccc3)[C@]3(O)C[C@H](OC(=O)[C@H](O)[C@@H](NC(=O)C(C)=O)c4ccccc4)C(C)=C1C3(C)C)[C@]1(OC(C)=O)CO[C@@H]1C[C@@H]2O | 3.5 | -0.544 |
| CC(=O)O[C@H]1C(=O)[C@@]2(C)[C@H]([C@H](OC(=O)c3ccccc3)[C@]3(O)C[C@H](OC(=O)[C@@H](NC(=O)c4ccccc4)[C@H](O)c4ccccc4)C(C)=C1C3(C)C)[C@]1(OC(C)=O)CO[C@@H]1C[C@@H]2O | 110 | -2.04 |
| COc1ccc(C(=O)N[C@@H](c2ccccc2)[C@@H](O)C(=O)O[C@H]2C[C@@]3(O)[C@@H](OC(=O)c4ccccc4)[C@@H]4[C@]5(OC(C)=O)CO[C@@H]5C[C@H](O)[C@@]4(C)C(=O)[C@H](OC(C)=O)C(=C2C)C3(C)C)cc1 | 0.6 | 0.222 |
| CC(=O)O[C@@]12CO[C@@H]1C[C@H](OC(=O)[C@H](N)Cc1ccccc1)[C@@]1(C)C(=O)[C@H](O)C3=C(C)[C@@H](OC(=O)[C@H](O)[C@@H](NC(=O)OC(C)(C)C)c4ccccc4)C[C@@](O)([C@@H](OC(=O)c4ccccc4)[C@H]21)C3(C)C | 1 | 0 |
| CC(=O)O[C@@]12CO[C@@H]1C[C@H](O)[C@@]1(C)C(=O)[C@H](O)C3=C(C)[C@@H](OC(=O)[C@H](O)[C@@H](NC(=O)c4ccccc4)c4ccccc4)C[C@@](O)([C@@H](OC(=O)c4ccccc4)[C@H]21)C3(C)C | 1.3 | -0.114 |
| CC(=O)O[C@H]1C(=O)[C@@]2(C)[C@H]([C@H](OC(=O)c3ccccc3)[C@]3(O)C[C@H](OC(=O)[C@H](O)[C@@H](NC(=O)c4ccccc4)c4ccc(C)cc4)C(C)=C1C3(C)C)[C@]1(OC(C)=O)CO[C@@H]1C[C@@H]2O | 2.4 | -0.38 |
| CC(=O)O[C@H]1C(=O)[C@@]2(C)[C@H]([C@H](OC(=O)c3ccccc3)[C@]3(O)C[C@H](OC(=O)[C@H](O)[C@@H](NC(=O)c4ccc(Cl)cc4)c4ccccc4)C(C)=C1C3(C)C)[C@]1(OC(C)=O)CO[C@@H]1C[C@@H]2O | 2.4 | -0.38 |
| CC(=O)O[C@@]12CO[C@@H]1C[C@H](O)[C@@]1(C)C(=O)[C@H](O)C3=C(C)[C@@H](OC(=O)[C@@H](NC(=O)OC(C)(C)C)[C@H](O)c4ccccc4)C[C@@](O)([C@@H](OC(=O)c4ccccc4)[C@H]21)C3(C)C | 160 | -2.2 |
| CC(=O)O[C@H]1C(=O)[C@@]2(C)[C@H]([C@H](OC(=O)c3ccccc3)[C@]3(O)C[C@H](OC(=O)[C@@H](NC(=O)OC(C)(C)C)[C@H](O)c4ccccc4)C(C)=C1C3(C)C)[C@]1(OC(C)=O)CO[C@@H]1C[C@@H]2O | 108 | -2.03 |
| CC(=O)O[C@H]1C(=O)[C@@]2(C)[C@H]([C@H](OC(=O)c3ccccc3)[C@]3(O)C[C@H](OC(=O)[C@H](O)[C@@H](NC(=O)CC(C)(C)C)c4ccccc4)C(C)=C1C3(C)C)[C@]1(OC(C)=O)CO[C@@H]1C[C@@H]2O | 0.7 | 0.155 |
| CC(=O)O[C@H]1C(=O)[C@@]2(C)[C@H]([C@H](OC(=O)c3ccccc3)[C@]3(O)C[C@H](OC(=O)[C@H](O)[C@@H](NC(=O)c4ccc(C)cc4)c4ccccc4)C(C)=C1C3(C)C)[C@]1(OC(C)=O)CO[C@@H]1C[C@@H]2O | 1.6 | -0.204 |
| CC(=O)O[C@H]1C(=O)[C@@]2(C)[C@H]([C@H](OC(=O)c3ccccc3)[C@]3(O)C[C@H](OC(=O)[C@H](OC(C)=O)[C@@H](NC(=O)c4ccccc4)c4ccccc4)C(C)=C1C3(C)C)[C@]1(OC(C)=O)CO[C@@H]1C[C@@H]2O | 30 | -1.48 |
| CC(=O)O[C@@]12CO[C@@H]1C[C@H](OC(=O)[C@H](O)[C@@H](O)[C@H](O)CO)[C@@]1(C)C(=O)[C@H](O)C3=C(C)[C@@H](OC(=O)[C@H](O)[C@@H](NC(=O)c4ccccc4)c4ccccc4)C[C@@](O)([C@@H](OC(=O)c4ccccc4)[C@H]21)C3(C)C | 0.6 | 0.222 |
| CC(=O)O[C@@]12CO[C@@H]1C[C@H](O)[C@@]1(C)C(=O)[C@H](O)C3=C(C)[C@@H](OC(=O)[C@H](NC(=O)c4ccccc4)[C@@H](O)c4ccccc4)C[C@@](O)([C@@H](OC(=O)c4ccccc4)[C@H]21)C3(C)C | 10 | -1 |
| CC(=O)O[C@@]12CO[C@@H]1C[C@H](O)[C@@]1(C)C(=O)[C@H](O)C3=C(C)[C@@H](OC(=O)[C@@H](O)[C@H](NC(=O)OC(C)(C)C)c4ccccc4)C[C@@](O)([C@@H](OC(=O)c4ccccc4)[C@H]21)C3(C)C | 30 | -1.48 |
| CC(=O)O[C@H]1C[C@]2(C)[C@@H](O)C[C@H]3OC[C@@]3(OC(C)=O)[C@H]2[C@H](OC(=O)c2ccccc2)[C@@]2(O)C[C@H](OC(=O)[C@H](O)[C@@H](NC(=O)c3ccccc3)c3ccccc3)C(C)C1C2(C)C (stereo partly drawn) | 3 | -0.477 |
| CC(=O)O[C@@]12CO[C@@H]1C[C@H](O)[C@@]1(C)C(=O)[C@H](O)C3=C(C)[C@@H](OC(=O)[C@H](O)Cc4ccccc4)C[C@@](O)([C@@H](OC(=O)c4ccccc4)[C@H]21)C3(C)C | 4.5 | -0.653 |
| CC(=O)O[C@@]12CO[C@@H]1C[C@H](O)[C@@]1(C)C(=O)[C@H](O)C3=C(C)[C@@H](OC(=O)[C@H](O)[C@@H](NC(=O)OC(C)(C)C)c4ccccc4)C[C@@](O)([C@@H](OC(=O)c4ccccc4)[C@H]21)C3(C)C (stereo in doubt; 39) | 0.5 | 0.301 |

Reference: ChEMBL document CHEMBL1127973, “A comparative molecular field analysis derived model of the binding of taxol analogues to microtubules” (Bioorg Med Chem Lett, 1994)
